Counter-ions that a name gives are not always drawn. Like-named read-outs stand apart in the source and are kept apart here.
What was measured:
5-HTP = 5-HTP antagonism: forepaw treading, flat body posture and head twitches induced by 5-hydroxytryptophan; assay type: in vivo, rat (female Wistar); conditions: Rattus norvegicus
Description: 4 Female Wistar rats (270±30 g), fasted for approximately 24 hours, are used. At the beginning of the test, they are administered the "control" solution or solutions of 5-hydroxytryptophan at a dose of 320 mg/kg. The animals are then placed under observation in transparent cages. Three parameters are assessed in the study: "forepaw treading", "flat body posture" and "head twitches". "Forepaw treading" corresponds to a pedalling motion of the forelimbs. This parameter is measured 80 minutes after the administration of 1,5-hydroxytryptophan and during a ten-minute observation period. This time is divided into 5- second periods and, if a movement is observed in this period, a score of 1 is assigned, the maximum score being […] for the ten minutes of observation and for each animal. The parameter "head twitches" relates to the number of twitches of the head of the animals observed during 10 minutes. This parameter is assessed 90 minutes after the administration of 1,5-hydroxytryptophan and during a 10- minute period. "Flat body posture" corresponds to a flattening of the body which lasts for more than 10 minutes. This parameter is assessed throughout the period of observation of the animals.

5-HT2 = target: T1, 5-HT2 (Rattus norvegicus, UniProt P14842); assay: 5-HT2 antagonism: inhibition of hypertensive response to 5-hydroxytryptamine; assay type: in vivo, rat (male Sprague-Dawley); conditions: iv, 10 min, i.v., cumulative doses, 5-hydroxytryptamine 100 μg/kg i.v., prazosin pretreatment, read-out: ID50, dose inhibiting the hypertensive response by 50%
T1 construct: from tissue; host or cells: whole anaesthetised male Sprague-Dawley rat in vivo (vasculature; arterial blood pressure recorded)
T1 sequence (P14842 whole entry): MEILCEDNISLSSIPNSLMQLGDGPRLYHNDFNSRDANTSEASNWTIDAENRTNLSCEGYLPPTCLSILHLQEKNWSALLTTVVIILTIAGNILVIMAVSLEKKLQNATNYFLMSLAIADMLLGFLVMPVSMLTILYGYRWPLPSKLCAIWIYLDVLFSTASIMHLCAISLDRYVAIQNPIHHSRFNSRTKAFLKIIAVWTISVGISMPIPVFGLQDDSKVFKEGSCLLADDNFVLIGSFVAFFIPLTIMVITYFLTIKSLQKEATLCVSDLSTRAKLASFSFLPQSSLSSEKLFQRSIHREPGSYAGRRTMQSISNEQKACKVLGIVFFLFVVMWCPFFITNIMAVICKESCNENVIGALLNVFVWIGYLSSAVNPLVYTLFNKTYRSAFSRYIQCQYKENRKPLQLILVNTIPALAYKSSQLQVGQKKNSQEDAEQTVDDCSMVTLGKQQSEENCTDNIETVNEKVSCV
Description: Male Sprague-Dawley rats (350-400 g) are anesthetized i.p. with pentobarbital (45 mg/kg). The trachea is cannulated and the animals are subjected to artificial respiration. The vagus nerves are sectioned. A catheter is placed in a carotid artery to record the arterial blood pressure. A second catheter is placed in the vein of the penis and is used for the injections. The animals' temperature is taken and is maintained at 37° C. The rats are pretreated with d-tubocurarine (1 mg/kg i.v.) an prazosin (1 mg/kg i.v.). 5-Hydroxytryptamine is injected i.v. at a dose of 100 μg/kg twice, separated by an interval of 10 minutes, so as to determine the rise in the systolic arterial blood pressure of each rat 10 minutes later, the compounds of the invention are injected at the lowest dose and injection of 5-hydroxytryptamine is performed again 10 minutes later. 3 or 4 cumulative doses of the compounds of the invention are tested in the same manner. The percentages of the hypertensive response which are obtained at the different doses are calculated in order to determine the ID50, the dose inhibiting the hypertensive response by 50%.

α1 receptor = conditions: in words; cited from earlier work
[1] = sc, subcutaneously, 5-hydroxytryptophan 320 mg/kg, Table IV, read-out: ED50 FBP (flat body posture)
[2] = sc, subcutaneously, 5-hydroxytryptophan 320 mg/kg, Table IV, read-out: ED50 FPT (forepaw treading)
[3] = sc, read-out: ED50 HT (head twitches)

SMILES | ED50 (5-HTP; [1]) | ED50 (5-HTP; [2]) | ED50 (5-HTP; [3]) | ED50 (5-HT2) | α1 antagonist activity (α1 receptor) | ED50 (5-HTP; read-out: ED50 HT (head twitches)) | ED50 (5-HTP; Table V, route not given, 5-hydroxytryptophan 320 mg/kg, read-out: ED50 FBP (flat body posture)) | ED50 (5-HTP; Table V, route not given, 5-hydroxytryptophan 320 mg/kg, read-out: ED50 FPT (forepaw treading))
Cl.O=C(c1ccc(F)cc1)C1CCN(CCCCN2C(=O)CN(Cc3ccccc3F)CC2=O)CC1 [EXAMPLE 4, 1-{4-[4-(4-Fluorobenzoyl)piperidino]butyl}-4-(2-fluorobenzyl) piperazine 2,6-dione hydrochloride] | 10 mg/kg | 5 mg/kg | – | – | – | – | – | –
Cl.Cl.O=C(c1ccc(F)cc1)C1CCN(CCCN2CCN(c3ncccn3)CC2)CC1 [EXAMPLE 7, 1-{3-[4-(4-Fluorobenzoyl)piperidino]propyl}-4-(2-pyrimidinyl) -piperazine dihydrochloride] | 1.25 mg/kg | 1.25 mg/kg | > 10 mg/kg | – | – | – | – | –
Cc1nc2c(C#N)ncn2c(O)c1CCN1CCC(C(=O)c2ccc(F)cc2)CC1 [EXAMPLE 1, 8-Cyano-3-{2-[4-(4-fluorobenzoyl)piperidino]ethyl}-4-hydroxy-2-methylimidazo[l,5-a]pyrimidine hydrochloride] | 0.04 mg/kg | 40 mg/kg | > 40 mg/kg | 0.0045 mg/kg | – | – | – | –
Cl.Cl.O=C(c1ccc(F)cc1)C1CCN(CCN2CCN(c3ncccn3)CC2)CC1 [EXAMPLE 21, 4-{2-[4-(4-Fluorobenzoyl)piperidino]ethyl}-1-(2-pyrimidinyl) piperazine dihydrochloride] | 0.63 mg/kg | 2.5 mg/kg | 1.25 mg/kg | – | – | – | – | –
Cc1cccc(CN2CC(=O)N(CCCN3CCC(C(=O)c4ccc(F)cc4)CC3)C(=O)C2)c1.Cl [EXAMPLE 15, 1-{3-[4-(4-Fluorobenzoyl)piperidino]propyl}-4-(3-methylbenzyl) piperazine 2,6-dione hydrochloride] | 2.5 mg/kg | 10 mg/kg | 5 mg/kg | – | – | – | – | –
O=C(c1ccc(F)cc1)C1CCN(CCn2c(=O)[nH]c3ccccc3c2=O)CC1 [KETANSERIN] | – | – | – | – | devoid of α1 antagonist activity | – | – | –
O=C(CC1CCCN(CCCN2C(=O)CN(Cc3ccccc3F)CC2=O)C1)c1ccc(F)cc1 (stereo not shown) [EXAMPLE 6, 4-(2-Fluorobenzyl)-1-{3-[3-4-fluorophenacyl)piperidino]propyl)}piperazine 2,6-dione ditartrate] | 1.25 mg/kg | 2.5 mg/kg | – | 0.0037 mg/kg | – | – | – | –
Cl.O=C(c1ccc(F)cc1)C1CCN(CCCN2C(=O)CN(Cc3ccccn3)CC2=O)CC1 [EXAMPLE 3, 1-{3-[4-(4-Fluorobenzoyl)piperidino]propyl}-4-(2-pyridylmethyl) piperazine 2,6-dione hydrochloride] | 0.31 mg/kg | 1.25 mg/kg | 5 mg/kg | – | – | – | – | –
Cl.O=C(c1ccc(F)cc1)C1CCN(CCCN2C(=O)CN(Cc3ccccc3F)CC2=O)CC1 [EXAMPLE 2, 1-{3-[4-(4-Fluorobenzoyl)piperidino]propyl}-4-(2-fluorobenzyl) piperazine 2,6-dione hydrochloride] | 0.31 mg/kg | 10 mg/kg | 5 mg/kg | 0.014 mg/kg | – | – | – | –
COc1cccc(CN2CC(=O)N(CCCN3CCC(C(=O)c4ccc(F)cc4)CC3)C(=O)C2)c1.Cl [EXAMPLE 18, 1-{3-[4-(4-Fluorobenzoyl)piperidino]propyl}-4-(3-methoxybenzyl) piperazine 2,6-dione hydrochloride] | 2.5 mg/kg | 5 mg/kg | – | – | – | – | – | –
Cc1nc2c(C(N)=O)ncn2c(O)c1CCN1CCC(C(=O)c2ccc(F)cc2)CC1 [EXAMPLE 8, 8-Carbamoyl-3-{2-[4-(4-fluorobenzoyl)piperidino]-ethyl}-4-hydroxy-2-methylimidazol[1,5-a]pyrimidine hydrochloride] | – | – | – | 0.018 mg/kg | – | > 10 mg/kg | 0.63 mg/kg | 10 mg/kg
O=C(CC1CCN(CCn2c(=O)[nH]c3ccccc3c2=O)C1)c1ccc(F)cc1 (stereo not shown) [EXAMPLE 10, 2,4-Dioxo-3-{2-[3-(4-fluorophenacyl)-1-pyrrolidinyl]ethyl}-1,2,3,4-tetrahydrocuinazoline hydrochloride] | 0.16 mg/kg | 0.31 mg/kg | 2.5 mg/kg | 0.0054 mg/kg | – | – | – | –
Cc1nc2c(C(N)=O)ncn2c(O)c1CCN1CCC(CC(=O)c2ccc(F)cc2)C1.Cl (stereo not shown) [EXAMPLE 9, 8-Carbamoyl-3-{2-[3-(4-fluorophenacyl)-1-pyrrolidinyl]ethyl}-4-hydroxy-2-methylimidazo[1,5-a]pyrimidine hydrochloride] | – | – | – | 0.01 mg/kg | – | – | – | –
O=C(CC1CCN(CCCN2C(=O)CN(Cc3ccccc3F)CC2=O)C1)c1ccc(F)cc1.O=C(O)C(O)C(O)C(=O)O (stereo not shown) [EXAMPLE 5, 4-(2-Fluorobenzyl)-1-{3-[3-(4-fluorophenacyl)-1-pyrrolidinyl]propyl}piperazine 2,6-dione tartrate] | 0.31 mg/kg | 10 mg/kg | > 10 mg/kg | – | – | – | – | –

Reference: US5077288A, “4-fluorobenzoic compounds with 5-HT2 - and α1 -antagonistic activities” (Adir et Compagnie, priority 1989, dated 1991)
